In brackets after ≈: the same amount, converted by molar mass. Where two headings read alike, the source gives them in different places.
Tests used:
Test in all cases: Antibacterial activity, minimum inhibition concentration (MIC)
Assay type in all cases: cell-based
[1] = system: Salmonella typhimrium 901
Method: (§1) Antibacterial activities of the compounds according to this invention, which had been prepared in the preceding Examples, were measured according to the method prescribed by The Committee of Amendment of "The method for measurement of the minimum inhibition concentration", The Chemotherapy Association, Japan (See Chemotherapy, Vol. 29, No. 1, pp. 76 ~ 79 (1981)).
(§2) The test results are shown in terms of the minimum inhibition concentration (MIC) (unit: µg/mℓ) in the following Tables 1 to 4.

[2] = system: Staphylococcus aureus MS 353; details: for MIC: Staphylococcus aureus
Method: as §1, §2

[3] = system: Proteus morganii IFO 3848; details: for MIC: Morganella morganii
Method: as §1, §2

[4] = Table 4, Salmonella typhimrium 901, read-out: minimum inhibition concentration (MIC)
[5] = MS353, Table 4, Staphylococcus aureus MS 353, read-out: minimum inhibition concentration (MIC)
[6] = IFO3848, Table 4, Proteus morganii IFO 3848, read-out: minimum inhibition concentration (MIC)

| Compound | MIC [1, 4] | MIC [2, 5] | MIC [3, 6] | further results |
| --- | --- | --- | --- | --- |
| CC1(C)S[C@@H]2C(NC(=O)C(=CCl)c3csc(N)n3)C(=O)N2[C@H]1C(=O)[O-].[Na+] (single isomer, unassigned) [Example 38, Sodium 6-[2-chloromethylene-2-(2-aminothiazol-4-yl)acetamido]penicillanate] | – | – | – | MIC ([1]; Salmonella, 901, read-out: minimum inhibition concentration (MIC)): 3.12 µg/mL; MIC ([2]; MS353, read-out: minimum inhibition concentration (MIC)): 0.2 µg/mL; MIC ([3]; IFO3848, read-out: minimum inhibition concentration (MIC)): 0.05 µg/mL |
| N#CCn1nnnc1SCC1=C(C(=O)O)N2C(=O)C(NC(=O)C(=CCl)c3csc(N)n3)C2SC1 (single isomer, unassigned) [Example 32, sodiun 7-[2-chloromethylene-2-(2-aminothiazol-4-yl)acetamido]-3-(l-cyanomethyl-l,2,3,4-tetrazol-5-yl)thiomethyl-3-cephem-4-carboxylate] | 0.78 µg/mL (≈ 1.44 µM) | 1.56 µg/mL (≈ 2.89 µM) | 0.0125 µg/mL (≈ 0.0231 µM) | – |
| Nc1nc(C(=CCl)C(=O)NC2C(=O)N3C(C(=O)O)=C(CSc4nnnn4CCO)CSC23)cs1 (single isomer, unassigned) [Example 31] | 0.39 µg/mL (≈ 0.716 µM) | 0.78 µg/mL (≈ 1.43 µM) | ≤ 0.00625 µg/mL | – |
| Nc1nc(C(=CCl)C(=O)NC2C(=O)N3C(C(=O)O)=C(CSc4cnns4)CSC23)cs1 (single isomer, unassigned) [Example 33, sodium 7-[2-chloromethylene-2-(2-aminothiazol-4-yl)acetamido]-3-(1,2,3-thiadiazol-5-yl)thiomethyl-3-cephem-4-carboxylate] | 0.2 µg/mL | 0.1 µg/mL | ≤ 0.00625 µg/mL | – |
| Nc1nc(C(=CCl)C(=O)NC2C(=O)N3C(C(=O)O)=C(CSc4cnn[nH]4)CSC23)cs1 (single isomer, unassigned) [Example 34, sodium7-[2-chloramethylene-2-(2-aminothiazol-4-yl)acetamido]-3-(l,2,3-triazol-5-yl)thiomethyl-3-cephem-4-carboxylate] | 0.78 µg/mL | 0.78 µg/mL | 0.0125 µg/mL | – |
| Cn1ncc(=O)nc1SCC1=C(C(=O)O)N2C(=O)C(NC(=O)C(=CCl)c3csc(N)n3)C2SC1 (single isomer, unassigned) [Example 36, sodium 7-[2-chloromethylene-2-(2-aminothiazol-4-yl)acetamido]-3-(2-dihydro-2-methyl-5-oxo-as-triazine-3-yl)thiomethyl-3-cephem-4-carboxylate] | 0.39 µg/mL | 0.39 µg/mL | ≤ 0.00625 µg/mL | – |
| sodium 7-[2-chloromethylene-2-(2-aminothiazol-4-yl)-acetamido]-3-(2-hydroxycarbonylmethylthio-1,3,4-thiadia- zol-5-yl)thiomethyl-3-cephem-4-carboxylate [Example 35] | – | – | – | minimum inhibition concentration (MIC) ([1]; Table 4, Salmonella typhimrium 901): 0.78 µg/mL; minimum inhibition concentration (MIC) ([2]; Table 4, Staphylococcus aureus MS 353): 0.78 µg/mL; minimum inhibition concentration (MIC) ([3]; Table 4, Proteus morganii IFO 3848): ≤0.00625 µg/mL |
| Nc1nc(C(=CI)C(=O)NC2C(=O)N3C(C(=O)O)=C(CSc4nncs4)CS[C@H]23)cs1 (single isomer, unassigned) [Example 37, 7-[2-Iodomethylene-2-(2-aminothiazol-4-yl)acetamido]-3-(1,3,4-thiadiazol-2-yl)thiomethyl-3-cephem-4-carboxylic acid] | 0.39 µg/mL (≈ 0.641 µM) | 0.2 µg/mL (≈ 0.329 µM) | ≤ 0.00313 µg/mL | – |
| COC(=O)Cn1nnnc1SCC1=C(C(=O)O)N2C(=O)C(NC(=O)C(=CCl)c3csc(N)n3)C2SC1 (single isomer, unassigned) [Example 30, disodium 7-[2-chloromethylene-2-(2-aminothiazol-4-yl)acetamido]-3-(l-methoxycarbonylmethyl-1,2,3,4-tetrazol-5-yl)thiomethyl-3-cephem-4-carboxylate] | 0.2 µg/mL | 0.78 µg/mL | – | – |

— patent EP0082498A2, “Beta-lactam compounds and process for the preparation thereof” (SAGAMI CHEMICAL RESEARCH CENTER, priority 1981, dated 1983)
